In patent US8178506B2, “Oligomeric compounds and compositions for use in modulation of small non-coding RNAs” (Regulus Therapeutics Inc., priority 2003, dated 2012):
In the oligonucleotide strings, read from the 5' end, every base follows the letter of its sugar. An asterisk marks phosphorothioate; unmarked linkages are phosphodiester. Other units and linkages are bracketed, terminal groups are in braces. A string of capitals states the bases alone. e = 2'-O-(2-methoxyethyl) (MOE); [5mC] = 5-methylcytosine; d = 2'-deoxy (DNA)

Key:
[1] = test system: PEPCK-c; experiment: PEPCK-c mRNA expression in HepG2 cells; assay type: cell-based, human; conditions: for PEPCKc mRNA expression: Experiment 2, insulin treated: HepG2 cells transfected with oligomeric compound, 1 nM insulin for four hours, UTC + 1 nM insulin = 100; for PEPCKc mRNA: four hours, UTC = 100
[2] = test system: BJ, B16-F10, T47D, T47Dp53 and HeLa cells; experiment: Cell cycle assay (propidium iodide flow cytometry), cell line panel; assay type: cell-based; conditions: 150 nM oligomeric compound, 4.5 μg/ml LIPOFECTIN, after 72 hours, propidium iodide flow cytometry
[3] = Experiment 1, basal (no insulin), HepG2, 100 nM oligomeric compound
[4] = Experiment 2, 1 nM insulin treated, HepG2, 100 nM oligomeric compound
[5] = HepG2 cells, Experiment 1, basal (no insulin)
[6] = Experiment 3, basal (no insulin), HepG2 cells, 48 hours post-transfection
[7] = Experiment 4, insulin-sensitization: HepG2 cells treated with 1 nM insulin for four hours, 48 h post-transfection, mRNA by real-time PCR

327933 (antisense eA*eA*eG*eG*eG*eA*eT*eT*e[5mC]*e[5mC]*eT*eG*eG*eG*eA*eA*eA*eA*e[5mC]*eT*eG*eG*eA*e[5mC]) [compound 327933]
PEPCK-c (% UTC) [1, 3]: 118 % UTC
PEPCK-c (% UTC) [1, 4]: 115 % UTC
G1 (percentage of cells in phase of the cell cycle) [2]: 49.6%
G2/M (percentage of cells in phase of the cell cycle) [2]: 19.1%
S (percentage of cells in phase of the cell cycle) [2]: 31.3%
SubG1 (percentage of cells in phase of the cell cycle) [2]: 10.2%
aneuploid (percentage of cells) [2]: 15.9%

327911 (antisense eG*e[5mC]*eT*eA*e[5mC]*e[5mC]*eT*eG*e[5mC]*eA*e[5mC]*eT*eG*eT*eA*eA*eG*e[5mC]*eA*e[5mC]*eT*eT*eT*eT) [compound 327911]
PEPCKc mRNA expression [1]: 78
PEPCKc mRNA [1, 5]: 52
G1 (percentage of cells in phase of the cell cycle) [2]: 49.9%
G2/M (percentage of cells in phase of the cell cycle) [2]: 20%
S (percentage of cells in phase of the cell cycle) [2]: 30.1%
SubG1 (percentage of cells in phase of the cell cycle) [2]: 10.9%
aneuploid (percentage of cells) [2]: 16.5%

327934 (antisense eG*eG*eT*eA*e[5mC]*eA*eA*eT*e[5mC]*eA*eA*e[5mC]*eG*eG*eT*e[5mC]*eG*eA*eT*eG*eG*eT) [compound 327934]
PEPCK-c (% UTC) [1, 3]: 99 % UTC
PEPCK-c (% UTC) [1, 4]: 105 % UTC
G1 (percentage of cells in phase of the cell cycle) [2]: 54.4%
G2/M (percentage of cells in phase of the cell cycle) [2]: 17.4%
S (percentage of cells in phase of the cell cycle) [2]: 28.2%
SubG1 (percentage of cells in phase of the cell cycle) [2]: 6.6%
aneuploid (percentage of cells) [2]: 17%

327878 (antisense e[5mC]*eT*eA*eG*eT*eG*eG*eT*e[5mC]*e[5mC]*eT*eA*eA*eA*e[5mC]*eA*eT*eT*eT*e[5mC]*eA*e[5mC]) [compound 327878]
PEPCK-c (% UTC) [1, 3]: 45 % UTC
PEPCK-c (% UTC) [1, 4]: 29 % UTC
G1 (percentage of cells in phase of the cell cycle) [2]: 39.1%
G2/M (percentage of cells in phase of the cell cycle) [2]: 20%
S (percentage of cells in phase of the cell cycle) [2]: 40.8%
SubG1 (percentage of cells in phase of the cell cycle) [2]: 17.3%
aneuploid (percentage of cells) [2]: 11.9%

328691 (e[5mC]*e[5mC]*e[5mC]*e[5mC]*eA*dT*d[5mC]*dT*dT*dA*dG*d[5mC]*dA*dT*d[5mC]*eT*eA*eA*eG*eG) [compound 328691]
PEPCK-c (% UTC) [1, 6]: 108 % UTC
PEPCK-c (% UTC) [1, 7]: 97 % UTC
G1 (percentage of cells in phase of the cell cycle) [2]: 60.5%
G2/M (percentage of cells in phase of the cell cycle) [2]: 15.1%
S (percentage of cells in phase of the cell cycle) [2]: 24.4%
SubG1 (percentage of cells in phase of the cell cycle) [2]: 7.7%
aneuploid (percentage of cells) [2]: 16.6%

327941 (antisense eA*eA*e[5mC]*e[5mC]*e[5mC]*eA*e[5mC]*e[5mC]*eG*eA*e[5mC]*eA*eG*e[5mC]*eA*eA*eT*eG*eA*eA*eT*eG*eT*eT) [compound 327941]
PEPCK-c (% UTC) [1, 3]: 101 % UTC
PEPCK-c (% UTC) [1, 4]: 98 % UTC
G1 (percentage of cells in phase of the cell cycle) [2]: 57.2%
G2/M (percentage of cells in phase of the cell cycle) [2]: 12.9%
S (percentage of cells in phase of the cell cycle) [2]: 29.9%
SubG1 (percentage of cells in phase of the cell cycle) [2]: 8.2%
aneuploid (percentage of cells) [2]: 15.8%

327885 (antisense eA*e[5mC]*eT*eA*e[5mC]*e[5mC]*eT*eG*e[5mC]*eA*e[5mC]*eT*eG*eT*eA*eA*eG*e[5mC]*eA*e[5mC]*eT*eT*eT*eG) [compound 327885]
PEPCKc mRNA [1, 5]: 73

327895 (antisense eA*e[5mC]*eA*eA*eA*e[5mC]*eA*e[5mC]*e[5mC]*eA*eT*eT*eG*eT*e[5mC]*eA*e[5mC]*eA*e[5mC]*eT*e[5mC]*e[5mC]*eA) [compound 327895]
PEPCKc mRNA [1, 5]: 71

341800 (antisense AAGCCCAAAAGGAGAAUUCUUUG; all 2'-MOE, all phosphorothioate, methylation of C and T or U not given here) [compound 341800]
PEPCKc mRNA [1, 5]: 71

327892 (antisense eA*e[5mC]*eT*eT*eT*e[5mC]*eG*eG*eT*eT*eA*eT*e[5mC]*eT*eA*eG*e[5mC]*eT*eT*eT*eA) [compound 327892]
PEPCK-c (% UTC) [1, 3]: 75 % UTC
PEPCK-c (% UTC) [1, 4]: 104 % UTC

327923 (antisense eG*eA*eA*eA*eG*eA*eG*eA*e[5mC]*e[5mC]*eG*eG*eT*eT*e[5mC]*eA*e[5mC]*eT*eG*eT*eG*eA) [compound 327923]
PEPCKc mRNA expression [1]: 125
PEPCKc mRNA [1, 5]: 83

327900 (antisense e[5mC]*eT*eG*e[5mC]*e[5mC]*eT*eG*eT*e[5mC]*eT*eG*eT*eG*e[5mC]*e[5mC]*eT*eG*e[5mC]*eT*eG*eT) [compound 327900]
PEPCKc mRNA [1, 5]: 88

340927 (antisense eT*eG*eA*eG*e[5mC]*dT*dA*d[5mC]*dA*dG*dT*dG*d[5mC]*dT*dT*e[5mC]*eA*eT*e[5mC]*eT*e[5mC]*eA) [compound 340927]
PEPCK-c (% UTC) [1, 3]: 87 % UTC
PEPCK-c (% UTC) [1, 4]: 103 % UTC

327954 (antisense eA*e[5mC]*eA*eA*eA*eG*eT*eT*e[5mC]*eT*eG*eT*eG*eA*eT*eG*e[5mC]*eA*e[5mC]*eT*eG*eA) [compound 327954]
PEPCK-c (% UTC) [1, 3]: 79 % UTC
PEPCK-c (% UTC) [1, 4]: 102 % UTC

341804 (antisense ATCTGCACTGTCAGCACTTT; all 2'-MOE, all phosphorothioate, methylation of C not given here) [compound 341804]
PEPCKc mRNA [1, 5]: 44

341807 (antisense CTGGGACTTTGTAGGCCAGTT; all 2'-MOE, all phosphorothioate, methylation of C not given here) [compound 341807]
PEPCKc mRNA [1, 5]: 97

328759 (antisense eG*eA*eG*eG*eG*dA*dT*dT*dG*dT*dA*dT*dG*dA*dA*e[5mC]*eA*eT*e[5mC]*eT) [compound 328759]
PEPCK-c (% UTC) [1, 6]: 98 % UTC
PEPCK-c (% UTC) [1, 7]: 92 % UTC

341806 (antisense GCCAATATTTCTGTGCTGCTA; all 2'-MOE, all phosphorothioate, methylation of C not given here) [compound 341806]
PEPCKc mRNA [1, 5]: 79

328677 (eT*e[5mC]*e[5mC]*eT*eG*dG*dA*dT*dG*dA*dT*dA*dT*d[5mC]*dT*eA*e[5mC]*e[5mC]*eT*e[5mC]; antisense) [compound 328677]
PEPCK-c (% UTC) [1, 6]: 145 % UTC
PEPCK-c (% UTC) [1, 7]: 117 % UTC

328115 (antisense eA*eG*eA*eA*eG*eG*eT*eG*eG*eG*eG*eA*eG*e[5mC]*eA*eG*e[5mC]*eG*eT*e[5mC]*eA) [compound 328115]
PEPCKc mRNA expression [1]: 59

327876 (antisense eA*eA*e[5mC]*eA*e[5mC]*eT*eG*eA*eT*eT*eT*e[5mC]*eA*eA*eA*eT*eG*eG*eT*eG*e[5mC]*eT*eA) [compound 327876]
PEPCK-c (% UTC) [1, 3]: 119 % UTC
PEPCK-c (% UTC) [1, 4]: 176 % UTC
